# Source: US20250369974A1, “METHOD FOR MONITORING AND PREVENTING CLINICALLY SIGNIFICANT KETONE LEVELS IN PATIENTS RECEIVING DICHLOROACETATE CO-ADMINISTERED WITH A CARBOHYDRATE RESTRICTED DIET” (SAOL INTERNATIONAL DEVELOPMENT LTD., priority 2024, published 2025)
# Read-outs that look alike come from different tables or passages of the source.
# Tests used:
# GSTZ1 haplotype carriers = conditions: cited from earlier work
# [1] = tested on: patients with Pyruvate Dehydrogenase Complex Deficiency (PDCD); experiment: Phase III double-blind, placebo-controlled crossover study with open label period: ObsROmotor, GHA, seizures, observer survey; assay type: in vivo, human
# Description: A double-blind period (Phase A) and an open label period (Phase B) was performed in patients 6 months through 17 years of age with Pyruvate Dehydrogenase Complex Deficiency (PDCD) (n=34). Patients receiving DCA were dose-stratified according to GSTZ1 genotype. DCA was dosed orally (oral, nasogastric tube, or gastric tube route) at either 12.5 mg/kg (fast metabolizers) or 6.25 mg/kg (slow metabolizers), every 12 hours. Twenty-seven (27) of 34 patients (79%), were fast metabolizers.
# The drug product is a clear, colorless solution.
# The primary efficacy outcome was assessed using an observer reported outcome that measures motor function, referred to as the ObsROmotor. The ObsROmotor is a daily observer reported survey that assesses weakness, incoordination, hypotonia (low muscle tone), hypertonia (rigidity, stiff muscle tone), and involuntary movements. Each domain was scored from 0 to 4, where 0 is no presence of the symptom, 1 is mild, 2 is moderate, 3 is severe and 4 extreme, with a total score ranging from 0 to 20.
# PDCD is a heterogenous disease with neurologic, metabolic and structural abnormalities. An observer rated Global Health Assessment (GHA) was also used to assess the overall health of the patient in addition to ObsROmotor. GHA was measured each week to assess the prior 7 days using a 5-point scale (much better, better, no change, worse, much worse). GHA scores improved over time and the scores were correlated with ObsROmotor.
# [2] = tested on: pediatric patients with PDCD; experiment: Adverse reaction data of Phase III study and open-label extension; assay type: in vivo, human
# Description: In the Phase III study, the safety of DCA was assessed in 34 pediatric patients with PDCD aged 6 months to 17 years. Patients receiving DCA were dose-stratified post-randomization according to GSTZ1 genotype to mitigate risk of peripheral neuropathy. DCA was dosed at either 12.5 mg/kg or 6.25 mg/kg divided into two equal doses approximately 12 hours apart. The dose based on GSTZ1 genotyping was done at baseline before patients initiated therapy. As noted above, this Phase III controlled study was followed by an ongoing, open-label extension study, used to assess long term safety and survival outcomes.
# In the open-label extension study, patients were treated for up to 3 years (median: 1.4 years) with DCA. The adverse events observed during the open-label phase of the study were similar to those observed in the double-blind portion of the study. During the open label portion of the trial there was a report of mild peripheral neuropathy in one patient who later withdrew from the study for a family relocation. This occurred after 18 months and was considered possibly drug related. DCA induced peripheral neuropathy has been identified as reversible upon therapy discontinuation.
# [3] = tested on: patients with Pyruvate Dehydrogenase Complex Deficiency (PDCD); experiment: Plasma BHB (ketone) levels in Phase III study of DCA in PDCD patients; assay type: in vivo, human
# Description: (§1) A total of 30 (of the 34) patients in the Phase III study in PDCD patients had lab values that could be evaluated throughout the study. Of these 30, 24 were defined to be adherent to a ketogenic diet based on their BHB level at baseline to be >0.3 mM.
# (§2) A double-blind period (Phase A) and an open label period (Phase B) was performed in patients 6 months through 17 years of age with Pyruvate Dehydrogenase Complex Deficiency (PDCD) (n=34). Patients receiving DCA were dose-stratified according to GSTZ1 genotype. DCA was dosed orally (oral, nasogastric tube, or gastric tube route) at either 12.5 mg/kg (fast metabolizers) or 6.25 mg/kg (slow metabolizers), every 12 hours. Twenty-seven (27) of 34 patients (79%), were fast metabolizers. […]
# [4] = tested on: pediatric patients with PDCD; experiment: Survival study of DCA-treated patients versus untreated natural history cohort; assay type: in vivo, human; conditions: primary endpoint, matched on age and sex; n=28 vs n=28; p=0.0273
# Description: Efficacy was assessed in a second study by comparing overall survival in pediatric patients with PDCD treated with DCA (n=28) with an untreated natural history cohort of pediatric patients with genetically confirmed PDCD (n=28).
# [5] = tested on: patients with Pyruvate Dehydrogenase Complex Deficiency (PDCD); experiment: Plasma lactate levels in Phase III study of DCA in PDCD patients; assay type: in vivo, human
# Description: as §1, §2
# Plasma lactate levels were evaluated as a key biomarker in PDCD. Lactate is a universal marker of disease activity in PDCD, and its elevation is a direct result of the fundamental metabolic deficit. Patients with PDCD have chronically elevated levels of lactate due to decreased PDC activity. Lowering of plasma lactate with use of DCA is considered a biomarker of its activation of PDC.
# [6] = severe patients (N=15), domain outside of motor function
# [7] = Patient 01-001, DCA Open Label 1, keto ratio 4.0:1
# [8] = Patient 01-001, DCA Open Label 2, keto ratio 4.0:1
# [9] = Patient 01-001, DCA Open Label 3, keto ratio 4.0:1
# [10] = Patient 01-001, DCA period, keto ratio 3.1:1
# [11] = Patient 03-001, DCA Open Label 1, keto ratio Not Recorded
# [12] = Patient 03-001, DCA Open Label 2, keto ratio 3.2:1
# [13] = Patient 03-001, DCA Open Label 3, keto ratio 3.1:1
# [14] = Patient 03-001, DCA period, keto ratio 4.0:1
# [15] = Patient 07-003-S, DCA Open Label 1, keto ratio 0.7:1
# [16] = Patient 07-003-S, DCA period, keto ratio 3.0:1
# [17] = of the 24 patients adherent to the ketogenic diet
# [18] = Phase III, all patients, p=0.006
structure (smiles),measurement,setting,value
"O=C(O)C(Cl)Cl [DCA, Dichloroacetate]",risk of peripheral neuropathy adverse events,"GSTZ1 haplotype carriers; EGT carriers (fast metabolizers), 25 mg/kg/day",low risk
same,risk of peripheral neuropathy adverse events,"GSTZ1 haplotype carriers; EGT non-carriers (slow metabolizers), 12.5 mg/kg/day",experience the same
same,patients maintaining stable disease or achieving clinically meaningful improvement (>20% reduction in ObsROmotor),"[1]; open label extension, of 34 patients",24
same,"survey respondents noting improvement in cognition, verbal communication, mobility, and/or endurance","[1]; open-label office visits, 25 of the 26 respondents",96.2%
same,observers rating patients with a GHA as better or much better,[1]; open-label portion,> 80%
same,patients showing improvement in motor function in at least one of the five domains,[1]; patients with more severe impairment at baseline (N=15),93%
same,improvement of motor function in the ObsROmotor scale vs. placebo,"[1]; patients with more severe impairment at baseline (N=15), p=0.066",−1.12
same,number of severe patients improving: hypertonia,[1]; severe patients (N=15),6
same,number of severe patients improving: hypotonia,[1]; severe patients (N=15),8
same,number of severe patients improving: incoordination,[1]; severe patients (N=15),6
same,number of severe patients improving: involuntary movement,[1]; severe patients (N=15),6
same,number of severe patients improving: weakness,[1]; severe patients (N=15),6
same,number of severe patients improving: fatigue,[1]; [6],7
same,number of severe patients improving: sleep,[1]; [6],8
same,Balance disorder,[2]; DCA (N = 34),1 (2.9) n (%)
same,Bruxism,[2]; DCA (N = 34),0 n (%)
same,Constipation,[2]; DCA (N = 34),1 (2.9) n (%)
same,Diarrhea,[2]; DCA (N = 34),1 (2.9) n (%)
same,Fatigue,[2]; DCA (N = 34),1 (2.9) n (%)
same,Flatulence,[2]; DCA (N = 34),0 n (%)
same,Gastrointestinal disorders (SOC),[2]; DCA (N = 34),2 (5.9) n (%)
same,General disorders and administration site conditions (SOC),[2]; DCA (N = 34),1 (2.9) n (%)
same,Insomnia,[2]; DCA (N = 34),0 n (%)
same,Irritability,[2]; DCA (N = 34),0 n (%)
same,Muscular weakness,[2]; DCA (N = 34),1 (2.9) n (%)
same,Musculoskeletal and connective tissue disorders (SOC),[2]; DCA (N = 34),1 (2.9) n (%)
same,Nervous system disorders (SOC),[2]; DCA (N = 34),1 (2.9) n (%)
same,Psychiatric disorders (SOC),[2]; DCA (N = 34),0 n (%)
same,Salivary hypersecretion,[2]; DCA (N = 34),0 n (%)
same,Skin and subcutaneous tissue disorders (SOC),[2]; DCA (N = 34),1 (2.9) n (%)
same,Syncope,[2]; DCA (N = 34),1 (2.9) n (%)
same,Tremor,[2]; DCA (N = 34),1 (2.9) n (%)
same,Urticaria,[2]; DCA (N = 34),1 (2.9) n (%)
same,deaths,"[2]; Phase III, 34 pediatric patients",no deaths
same,most commonly reported adverse reaction: gastrointestinal disorders,[2]; n=2 of 34 DCA-treated patients,5.9%
same,patients with report of mild peripheral neuropathy,"[2]; open label portion, after 18 months, considered possibly drug related",one
same,average BHB level while on DCA,"[3]; 9 patients without BHB increase, 2.04 mM not on DCA",1.8 mM
same,measures that exceeded 3.0 mM BHB while on DCA,"[3]; 9 patients without BHB increase, 38% not on DCA",24%
same,average BHB level while on DCA,"[3]; 15 patients that experienced an increase, 2.19 mM not on DCA",3.27 mM
same,measurements with clinically significant BHB (>3.0 mM) while on DCA,"[3]; 15 patients that experienced an increase, 13% not on DCA",62%
same,increase in average BHB level,"[3]; 15 patients that experienced an increase, on DCA vs not on DCA",49%
same,BHB,[3]; [7],3.19 mM
same,BHB,[3]; [8],2.74 mM
same,BHB,[3]; [9],4.08 mM
same,BHB,[3]; [10],6.36 mM
same,BHB,[3]; [11],4.41 mM
same,BHB,[3]; [12],2.76 mM
same,BHB,[3]; [13],2.06 mM
same,BHB,[3]; [14],4.21 mM
same,BHB,[3]; [15],2.38 mM
same,BHB,[3]; [16],4.02 mM
same,increase in the number of patients with BHB levels of 3.0 mM or higher,[3]; group experiencing increases in BHB,~5 fold
same,BHB levels greater than 4.0 while on DCA,"[3]; group experiencing increases in BHB, 3% while not on DCA",28%
same,patients that did not experience a rise in ketone levels after administration of DCA,[3]; [17],Nine
same,patients with a rise in ketone levels after administration of DCA,[3]; [17],15
same,multivariate risk reduction in the relative risk of death vs untreated patients,[4],99%
same,drop in lactate,[5]; 9 patients without BHB increase,11%
same,percentage of patients with normal lactate levels (2.0 mM or less) while on DCA,"[5]; 9 patients without BHB increase, 51% not on DCA",71%
same,drop in lactate levels while on DCA,[5]; 15 patients with BHB increase,20%
same,percentage of patients with normal lactate levels (2.0 mM or less) while on DCA,"[5]; 15 patients with BHB increase, 33% not on DCA",73%
same,Lactate,[5]; [7],1.58 mM
same,Lactate,[5]; [8],2.13 mM
same,Lactate,[5]; [9],1.33 mM
same,Lactate,[5]; [10],1.4 mM
same,Lactate,[5]; [11],1.36 mM
same,Lactate,[5]; [12],1.16 mM
same,Lactate,[5]; [13],1.41 mM
same,Lactate,[5]; [14],1.25 mM
same,Lactate,[5]; [15],0.68 mM
same,Lactate,[5]; [16],1.99 mM
same,"difference in plasma lactate, DCA vs. placebo",[5]; [18],-0.477 mM
same,"reduction in plasma lactate levels, DCA vs. placebo",[5]; [18],21%
same,patients achieving lactate normalization while on DCA therapy,[5]; in both groups (with and without BHB increase),> 70%
same,patients on DCA achieving normal levels (≤2mmol/L) of lactate,"[5]; vs. 42% on placebo, P=0.0114",66%
